# Measurements taken from patent US20080220031A1, “Dermocosmetic Preparations” (BASF Aktiengesellschaft, priority 2005, published 2008).
# Test: not given
# Settings: footnotes 2-4: BASF Technical Information / H. Zweifel; cited from earlier work
row,Compound,pKa
1,CC1(C)CC(N2CN3C(=O)N4CN(C5CC(C)(C)NC(C)(C)C5)CN5C(=O)N(C2)C3C45)CC(C)(C)N1,9.8^2)

# Test: Solubility of various HAS compounds in Miglyol 812
# Format: physicochemical
# Settings: introduced in portions into 10 g of Miglyol, stirred at room temperature
# From the text: Experimental procedure: The respective MS compound was introduced gradually in small portions into 10 g of Miglyol and in each case stirred at room temperature until it had completely dissolved.
row,Compound,Solubility in Miglyol 812
1,"CCCCCCCCCCCCC1CC(=O)N(C2CC(C)(C)NC(C)(C)C2)C1=O (stereo not drawn) [2-Dodecyl-N-(2,2,6,6-tetramethyl-4-piperidinyl)succinimide]",min. 50%
2,CC1(C)CC(OC(=O)CCCCCCCCC(=O)OC2CC(C)(C)NC(C)(C)C2)CC(C)(C)N1 [Tinuvin ® 770],4.7%
3,CC1(C)CC(N(C=O)CCCCCCN(C=O)C2CC(C)(C)NC(C)(C)C2)CC(C)(C)N1 [Uvinul ® 4050H],insoluble

# Test: Oxidation test squalene test (Raman, azo initiator V65)
# Settings: 2500 ppm test substance, azo initiator V65, 30 days at 40° C., squalene content by Raman spectrum
# Procedure: 3 ml of a 2% strength solution of the azo initiator V65 (from Wako) are introduced together with 2500 ppm of test substance (based on the squalene solution) into 12×100 […] Fiolax test tubes and thoroughly mixed using a laboratory shaker. The samples are then stored open in a through-circulation drying oven for 30 days at 40° C. At intervals of 7 days, the squalene content of the samples is determined by means of the Raman spectrum and chemometric evaluation. The datapoints are documented in an XY graph and the efficiency of the test substance is determined from the slope of the decomposition curves in comparison with a reference sample without test substance. The slope of the reference sample divided by the slope of the test substance sample gives the factor Q_Raman.
row,Compound,Qraman (slope of reference sample divided by slope of test substance sample)
1,CN1C(C)(C)CC(N(C=O)CCCCCCN(C=O)C2CC(C)(C)N(C)C(C)(C)C2)CC1(C)C,2.4
2,CCCCN(c1nc(NCCCN(CCN(CCCNc2nc(N(CCCC)C3CC(C)(C)N(C)C(C)(C)C3)nc(N(CCCC)C3CC(C)(C)N(C)C(C)(C)C3)n2)c2nc(N(CCCC)C3CC(C)(C)N(C)C(C)(C)C3)nc(N(CCCC)C3CC(C)(C)N(C)C(C)(C)C3)n2)c2nc(N(CCCC)C3CC(C)(C)N(C)C(C)(C)C3)nc(N(CCCC)C3CC(C)(C)N(C)C(C)(C)C3)n2)nc(N(CCCC)C2CC(C)(C)N(C)C(C)(C)C2)n1)C1CC(C)(C)N(C)C(C)(C)C1,1.4
3,CC1(C)CC(N2CN3C(=O)N4CN(C5CC(C)(C)NC(C)(C)C5)CN5C(=O)N(C2)C3C45)CC(C)(C)N1,1.3
4,CN1C(C)(C)CC(N2CN3C(=O)N4CN(C5CC(C)(C)N(C)C(C)(C)C5)CN5C(=O)N(C2)C3C45)CC1(C)C,2.2
5,CC(ON1C(C)(C)CC(O)CC1(C)C)c1ccccc1 (stereo not drawn),1.3
6,COC(=O)C(CO)ON1C(C)(C)CC(OC)CC1(C)C (stereo not drawn),1.8
7,CCCCCCCCCCCCC1CC(=O)N(C2CC(C)(C)N(C)C(C)(C)C2)C1=O (stereo not drawn),6.2
8,O=C1O[C@H]([C@@H](O)CO)C(O)=C1O [Ascorbic acid],1.2
9,CCCCCCCCON1C(C)(C)CC(OC(=O)CCCCCCCCC(=O)OC2CC(C)(C)N(OCCCCCCCC)C(C)(C)C2)CC1(C)C [Tinuvin 123],1.8
10,CCCCCCCCCCCCC1CC(=O)N(C2CC(C)(C)NC(C)(C)C2)C1=O (stereo not drawn) [drawing 31],7.1
11,Tocopherol,1.4
